Data reported in PMC5218480 (PLoS ONE, 2017).

Tested on: MV-4-11 cells
Test: Gene expression microarray analysis (Affymetrix PrimeView) and GSEA
Format: cell-based, human
Parameters: RFU PODN (11730768_x_at) / Fold change /veh PODN (11730768_x_at) / RFU LINC00158 (11744669_a_at) / Fold change /veh LINC00158 (11744669_a_at) / RFU DUSP10 (11751237_a_at) / Fold change /veh DUSP10 (11751237_a_at) / RFU ID3 (11757404_x_at) / Fold change /veh ID3 (11757404_x_at) / RFU PLEKHG5 (11737974_s_at) / Fold change /veh PLEKHG5 (11737974_s_at) / RFU LRRC4B (11730491_at) / Fold change /veh LRRC4B (11730491_at) / RFU GIMAP4 (11747438_a_at) / Fold change /veh GIMAP4 (11747438_a_at) / RFU KRT8 (11758183_x_at) / Fold change /veh KRT8 (11758183_x_at) / RFU CNN1 (11734310_a_at) / Fold change /veh CNN1 (11734310_a_at) / RFU VPS37D (11726825_at) / Fold change /veh VPS37D (11726825_at) / RFU C10orf10 (11716522_x_at) / Fold change /veh C10orf10 (11716522_x_at) / RFU KIR2DL2 /// KIR2DL4 /// KIR2DL5A /// KIR2DL5B /// KIR2DS1 /// KIR2DS2 /// KIR2DS3 /// KIR2DS4 /// KIR3DL3 /// KIR3DL3 /// KIR3DS1 (11738374_at) / Fold change /veh KIR2DL2 /// KIR2DL4 /// KIR2DL5A /// KIR2DL5B /// KIR2DS1 /// KIR2DS2 /// KIR2DS3 /// KIR2DS4 /// KIR3DL3 /// KIR3DL3 /// KIR3DS1 (11738374_at) / RFU C1QL1 (11718748_at) / Fold change /veh C1QL1 (11718748_at) / RFU TMPRSS4 (11747572_a_at) / Fold change /veh TMPRSS4 (11747572_a_at) / RFU HAMP (11756126_x_at) / Fold change /veh HAMP (11756126_x_at) / RFU RNFT2 (11725882_a_at) / Fold change /veh RNFT2 (11725882_a_at) / RFU NR4A2 (11747474_a_at) / Fold change /veh NR4A2 (11747474_a_at) / RFU ABCC12 (11746883_a_at) / Fold change /veh ABCC12 (11746883_a_at) / RFU TMEM136 (11760407_x_at) / Fold change /veh TMEM136 (11760407_x_at) / RFU CLDN22 /// WWC2 (11732394_at) / Fold change /veh CLDN22 /// WWC2 (11732394_at) / RFU HLA-DPB1 (11760878_x_at) / Fold change /veh HLA-DPB1 (11760878_x_at) / RFU SPINT1 (11716480_a_at) / Fold change /veh SPINT1 (11716480_a_at) / RFU GAP43 (11754022_s_at) / Fold change /veh GAP43 (11754022_s_at) / RFU A4GNT (11735810_at) / Fold change /veh A4GNT (11735810_at) / RFU PRB3 (11715151_x_at) / Fold change /veh PRB3 (11715151_x_at) / RFU TUBB4B (11761932_at) / Fold change /veh TUBB4B (11761932_at) / RFU CAPN14 (11732068_a_at) / Fold change /veh CAPN14 (11732068_a_at) / RFU TMCC2 (11721928_a_at) / Fold change /veh TMCC2 (11721928_a_at) / RFU IRGQ (11745062_a_at) / Fold change /veh IRGQ (11745062_a_at) / RFU FAM174B (11720279_a_at) / Fold change /veh FAM174B (11720279_a_at) / RFU TMPRSS4 (11748680_a_at) / Fold change /veh TMPRSS4 (11748680_a_at) / RFU FAM212B (11763350_a_at) / Fold change /veh FAM212B (11763350_a_at) / RFU PLEKHG5 (11743358_a_at) / Fold change /veh PLEKHG5 (11743358_a_at) / RFU ZSCAN30 (11745921_a_at) / Fold change /veh ZSCAN30 (11745921_a_at) / RFU CMKLR1 (11741424_a_at) / Fold change /veh CMKLR1 (11741424_a_at) / RFU LOC101060620 /// MAPK8IP1 (11723275_at) / Fold change /veh LOC101060620 /// MAPK8IP1 (11723275_at) / RFU SPTSSB (11747773_x_at) / Fold change /veh SPTSSB (11747773_x_at) / RFU PRSS12 (11739890_at) / Fold change /veh PRSS12 (11739890_at) / RFU BIN1 (11741810_x_at) / Fold change /veh BIN1 (11741810_x_at) / RFU WNT11 (11732464_a_at) / Fold change /veh WNT11 (11732464_a_at) / RFU C10orf10 (11716521_a_at) / Fold change /veh C10orf10 (11716521_a_at) / RFU C5orf56 (11738089_at) / Fold change /veh C5orf56 (11738089_at) / RFU CYB561 (11721691_x_at) / Fold change /veh CYB561 (11721691_x_at) / RFU ANKRD19P (11752326_a_at) / Fold change /veh ANKRD19P (11752326_a_at) / RFU OR2T12 /// OR2T33 /// OR2T8 (11738714_s_at) / Fold change /veh OR2T12 /// OR2T33 /// OR2T8 (11738714_s_at) / RFU VCAN (11748164_a_at) / Fold change /veh VCAN (11748164_a_at) / RFU JSRP1 (11732532_at) / Fold change /veh JSRP1 (11732532_at) / RFU KRTAP10-11 (11738290_x_at) / Fold change /veh KRTAP10-11 (11738290_x_at) / RFU MYO3A (11730013_a_at) / Fold change /veh MYO3A (11730013_a_at) / RFU EBF3 (11725865_a_at) / Fold change /veh EBF3 (11725865_a_at) / RFU CAMK2N1 (11719241_x_at) / Fold change /veh CAMK2N1 (11719241_x_at) / RFU C5orf56 (11738088_a_at) / Fold change /veh C5orf56 (11738088_a_at) / RFU OLFML3 (11715873_a_at) / Fold change /veh OLFML3 (11715873_a_at) / RFU LOC100653217 /// NTM (11731650_a_at) / Fold change /veh LOC100653217 /// NTM (11731650_a_at) / RFU MAPK11 (11762145_a_at) / Fold change /veh MAPK11 (11762145_a_at) / RFU FIZ1 (11724087_x_at) / Fold change /veh FIZ1 (11724087_x_at) / RFU OASL (11726364_x_at) / Fold change /veh OASL (11726364_x_at) / RFU SOX15 (11748057_x_at) / Fold change /veh SOX15 (11748057_x_at) / RFU CD79A (11719716_a_at) / Fold change /veh CD79A (11719716_a_at) / RFU HIST1H1D (11736915_at) / Fold change /veh HIST1H1D (11736915_at) / RFU CASKIN2 (11723855_a_at) / Fold change /veh CASKIN2 (11723855_a_at) / RFU LOC730098 (11760151_x_at) / Fold change /veh LOC730098 (11760151_x_at) / RFU OR4N2 (11742367_at) / Fold change /veh OR4N2 (11742367_at) / RFU PRRT2 (11749266_a_at) / Fold change /veh PRRT2 (11749266_a_at) / RFU SNX32 (11753110_a_at) / Fold change /veh SNX32 (11753110_a_at) / RFU CDHR5 (11726645_a_at) / Fold change /veh CDHR5 (11726645_a_at) / RFU RCAN1 (11760418_a_at) / Fold change /veh RCAN1 (11760418_a_at) / RFU FAM167A (11723789_a_at) / Fold change /veh FAM167A (11723789_a_at) / RFU FAM26E (11764081_at) / Fold change /veh FAM26E (11764081_at) / RFU ISYNA1 (11749810_s_at) / Fold change /veh ISYNA1 (11749810_s_at) / RFU ACY1 (11761880_at) / Fold change /veh ACY1 (11761880_at) / RFU 11764098_at / Fold change /veh 11764098_at / RFU SAMD14 (11745864_x_at) / Fold change /veh SAMD14 (11745864_x_at) / RFU NPB (11741838_a_at) / Fold change /veh NPB (11741838_a_at) / RFU TMPRSS6 (11731388_a_at) / Fold change /veh TMPRSS6 (11731388_a_at) / RFU KRTAP10-2 (11738614_at) / Fold change /veh KRTAP10-2 (11738614_at) / RFU ARHGAP8 /// PRR5-ARHGAP8 (11727945_x_at) / Fold change /veh ARHGAP8 /// PRR5-ARHGAP8 (11727945_x_at) / RFU KRTAP5-7 /// NADSYN1 (11734609_at) / Fold change /veh KRTAP5-7 /// NADSYN1 (11734609_at) / RFU RASL12 (11751679_a_at) / Fold change /veh RASL12 (11751679_a_at) / RFU CDKN2B (11736163_a_at) / Fold change /veh CDKN2B (11736163_a_at) / RFU PRF1 (11729649_at) / Fold change /veh PRF1 (11729649_at) / RFU, ZNF638 /// ZNF638-IT1 / Fold change vs veh, ZNF638 /// ZNF638-IT1 / RFU, PANK3 / Fold change vs veh, PANK3 / RFU, SH3YL1 / Fold change vs veh, SH3YL1 / RFU, ZEB2 / Fold change vs veh, ZEB2 / RFU, NRIP1 / Fold change vs veh, NRIP1 / RFU, PTTG1IP / Fold change vs veh, PTTG1IP / RFU, CAPN2 / Fold change vs veh, CAPN2 / RFU, MED14 / Fold change vs veh, MED14 / RFU, SNORA58 / Fold change vs veh, SNORA58 / RFU, C1orf63 / Fold change vs veh, C1orf63 / RFU, LRRFIP1 / Fold change vs veh, LRRFIP1 / RFU, NDUFAF7 / Fold change vs veh, NDUFAF7 / RFU, SLC12A2 / Fold change vs veh, SLC12A2 / RFU, IBTK / Fold change vs veh, IBTK / RFU, ESF1 / Fold change vs veh, ESF1 / Fold change vs veh, TMEM50B / RFU, TAOK1 / Fold change vs veh, TAOK1 / RFU, ACBD3 / Fold change vs veh, ACBD3 / RFU, TMA16 / Fold change vs veh, TMA16 / RFU, RWDD3 / Fold change vs veh, RWDD3 / RFU, BCAT1 / Fold change vs veh, BCAT1 / RFU, EDEM3 / Fold change vs veh, EDEM3 / RFU, TMEM33 / Fold change vs veh, TMEM33 / RFU, WDR75 / Fold change vs veh, WDR75 / RFU, AHCTF1 / Fold change vs veh, AHCTF1 / RFU, TFRC / Fold change vs veh, TFRC / RFU, ZDHHC17 / Fold change vs veh, ZDHHC17 / RFU, NOM1 / Fold change vs veh, NOM1 / RFU, ARL8B / Fold change vs veh, ARL8B / RFU, ZBTB11 / Fold change vs veh, ZBTB11 / RFU, TAMM41 / Fold change vs veh, TAMM41 / RFU, KIAA1704 /// LOC100996395 / Fold change vs veh, KIAA1704 /// LOC100996395 / RFU, ING1 / Fold change vs veh, ING1 / RFU, TRMT61B / Fold change vs veh, TRMT61B / RFU, FUBP3 / Fold change vs veh, FUBP3 / RFU, TP53 / Fold change vs veh, TP53 / RFU, TNKS2 / Fold change vs veh, TNKS2 / RFU, ZFP14 / Fold change vs veh, ZFP14 / RFU, ACTR2 / Fold change vs veh, ACTR2 / RFU, PPP3R1 / Fold change vs veh, PPP3R1 / RFU, PIK3R1 / Fold change vs veh, PIK3R1 / RFU, HNRNPA1 / Fold change vs veh, HNRNPA1 / RFU, RNF170 / Fold change vs veh, RNF170 / RFU, ZNF28 / Fold change vs veh, ZNF28 / RFU, RNGTT / Fold change vs veh, RNGTT / RFU, OGT / Fold change vs veh, OGT / RFU, BRD1 / Fold change vs veh, BRD1 / RFU, MARS / Fold change vs veh, MARS / RFU, ZNF655 / Fold change vs veh, ZNF655 / RFU, FAHD1 / Fold change vs veh, FAHD1 / RFU, BDP1 / Fold change vs veh, BDP1 / RFU, LRRCC1 / Fold change vs veh, LRRCC1 / RFU, ARID1A / Fold change vs veh, ARID1A / RFU, ZNF146 / Fold change vs veh, ZNF146 / RFU, ZNF330 / Fold change vs veh, ZNF330 / RFU, GPN3 / Fold change vs veh, GPN3 / RFU, C9orf123 / Fold change vs veh, C9orf123 / RFU, N4BP2L2 / Fold change vs veh, N4BP2L2 / RFU, ARFIP1 / Fold change vs veh, ARFIP1 / RFU, FAM179B / Fold change vs veh, FAM179B / RFU, BCL10 / Fold change vs veh, BCL10 / RFU, UHRF1BP1L / Fold change vs veh, UHRF1BP1L / RFU, BET1 / Fold change vs veh, BET1 / RFU, CNOT2 / Fold change vs veh, CNOT2 / RFU, ZNF268 / Fold change vs veh, ZNF268 / Fold change vs veh, ZNF507 / RFU, DGCR2 / Fold change vs veh, DGCR2 / RFU, WDSUB1 / Fold change vs veh, WDSUB1 / Fold change vs veh, HSP90B1 /// MIR3652 / RFU, ADSS / Fold change vs veh, ADSS / RFU, GK / Fold change vs veh, GK / RFU, ZNF148 / Fold change vs veh, ZNF148 / RFU, TAF9 / Fold change vs veh, TAF9 / RFU, SLC1A5 / Fold change vs veh, SLC1A5 / RFU, SLMO2 / Fold change vs veh, SLMO2 / RFU, ABCC4 / Fold change vs veh, ABCC4 / RFU, LOC101060439 /// RAP1B / Fold change vs veh, LOC101060439 /// RAP1B / RFU, RFX7 / Fold change vs veh, RFX7 / RFU, GTPBP10 / Fold change vs veh, GTPBP10 / RFU, CNEP1R1 / Fold change vs veh, CNEP1R1 / RFU, BIVM-ERCC5 /// ERCC5 / Fold change vs veh, BIVM-ERCC5 /// ERCC5 / RFU, ILF3 / Fold change vs veh, ILF3 / RFU 11762660_at / Fold change /veh 11762660_at / RFU VCAN (11757783_s_at) / Fold change /veh VCAN (11757783_s_at) / RFU DDX43 (11728927_at) / Fold change /veh DDX43 (11728927_at) / RFU KRT8 (11758188_x_at) / Fold change /veh KRT8 (11758188_x_at) / RFU NKD1 (11759106_at) / Fold change /veh NKD1 (11759106_at) / RFU SRD5A1 (11742802_a_at) / Fold change /veh SRD5A1 (11742802_a_at) / RFU TPSAB1 /// TPSB2 (11721975_s_at) / Fold change /veh TPSAB1 /// TPSB2 (11721975_s_at) / RFU GSTM3 (11746129_a_at) / Fold change /veh GSTM3 (11746129_a_at) / RFU IL23R (11737362_x_at) / Fold change /veh IL23R (11737362_x_at) / RFU TMEM51 (11727254_a_at) / Fold change /veh TMEM51 (11727254_a_at) / RFU PIWIL2 (11732686_x_at) / Fold change /veh PIWIL2 (11732686_x_at) / RFU ORM1 (11744905_x_at) / Fold change /veh ORM1 (11744905_x_at) / RFU CCDC152 (11743942_at) / Fold change /veh CCDC152 (11743942_at) / RFU ECM1 (11717891_a_at) / Fold change /veh ECM1 (11717891_a_at) / RFU IL23R (11748794_a_at) / Fold change /veh IL23R (11748794_a_at) / RFU TNFAIP8L3 (11732012_x_at) / Fold change /veh TNFAIP8L3 (11732012_x_at) / RFU MBOAT4 (11741988_at) / Fold change /veh MBOAT4 (11741988_at) / RFU 11764193_at / Fold change /veh 11764193_at / RFU TMEM53 (11763286_at) / Fold change /veh TMEM53 (11763286_at) / RFU MAGEB2 (11727129_at) / Fold change /veh MAGEB2 (11727129_at) / RFU TMEM200A (11744735_a_at) / Fold change /veh TMEM200A (11744735_a_at) / RFU CCDC152 (11751479_a_at) / Fold change /veh CCDC152 (11751479_a_at) / RFU FAM211A (11726209_a_at) / Fold change /veh FAM211A (11726209_a_at) / RFU RGS16 (11746705_a_at) / Fold change /veh RGS16 (11746705_a_at) / RFU VCAN (11755009_s_at) / Fold change /veh VCAN (11755009_s_at) / RFU RHOB (11743442_s_at) / Fold change /veh RHOB (11743442_s_at) / RFU RGS16 (11720943_a_at) / Fold change /veh RGS16 (11720943_a_at) / RFU RGS16 (11720944_at) / Fold change /veh RGS16 (11720944_at) / RFU, VPS4B / Fold change vs veh, VPS4B / RFU, CREB1 / Fold change vs veh, CREB1 / RFU, DNAJC13 / Fold change vs veh, DNAJC13 / RFU, GNAQ / Fold change vs veh, GNAQ / RFU, CDK5R1 / Fold change vs veh, CDK5R1 / RFU, ZRANB3 / Fold change vs veh, ZRANB3 / RFU, CUL4A / Fold change vs veh, CUL4A / RFU, CCNY / Fold change vs veh, CCNY / RFU, UFL1 / Fold change vs veh, UFL1 / RFU, COG3 / Fold change vs veh, COG3 / RFU, DIAPH2 / Fold change vs veh, DIAPH2 / RFU, SKA2 / Fold change vs veh, SKA2 / RFU, AFF3 / Fold change vs veh, AFF3 / RFU, LMF1 / Fold change vs veh, LMF1 / RFU, IPO11 / Fold change vs veh, IPO11 / RFU, DFFB / Fold change vs veh, DFFB / RFU, FOXP1 / Fold change vs veh, FOXP1 / RFU, CARD8 / Fold change vs veh, CARD8 / RFU, STRN3 / Fold change vs veh, STRN3 / RFU, ADK / Fold change vs veh, ADK / RFU, RASSF2 / Fold change vs veh, RASSF2 / RFU, WIPF1 / Fold change vs veh, WIPF1 / RFU, LARP1B / Fold change vs veh, LARP1B / RFU, RASA1 / Fold change vs veh, RASA1 / RFU, RB1 / Fold change vs veh, RB1 / RFU, PPFIA1 / Fold change vs veh, PPFIA1 / RFU, MAT2A / Fold change vs veh, MAT2A / RFU, CCT5 / Fold change vs veh, CCT5 / RFU, WDR92 / Fold change vs veh, WDR92 / RFU, CUX1 / Fold change vs veh, CUX1 / RFU, TTC7A / Fold change vs veh, TTC7A / RFU, TMEM135 / Fold change vs veh, TMEM135 / RFU, DEPTOR / Fold change vs veh, DEPTOR / RFU, CPM / Fold change vs veh, CPM / RFU, DNAJB6 / Fold change vs veh, DNAJB6 / RFU, CACNA2D3 / Fold change vs veh, CACNA2D3 / RFU, DTX4 / Fold change vs veh, DTX4 / RFU, TFCP2 / Fold change vs veh, TFCP2 / RFU, GMCL1 /// GMCL1P1 / Fold change vs veh, GMCL1 /// GMCL1P1 / RFU, AEBP2 / Fold change vs veh, AEBP2 / RFU, SNHG1 /// SNORD22 /// SNORD25 /// SNORD26 /// SNORD27 /// SNORD28 /// SNORD29 /// SNORD31 / Fold change vs veh, SNHG1 /// SNORD22 /// SNORD25 /// SNORD26 /// SNORD27 /// SNORD28 /// SNORD29 /// SNORD31 / Fold change (Aza/veh), C12orf56 (ProbeSet 11735607_a_at) / Fold change (ACY-1035/veh), C12orf56 (ProbeSet 11735607_a_at) / Fold change (Aza/veh), FGFR1OP (ProbeSet 11751329_s_at) / Fold change (ACY-1035/veh), FGFR1OP (ProbeSet 11751329_s_at) / Fold change (Aza/veh), VPS36 (ProbeSet 11739960_a_at) / Fold change (ACY-1035/veh), VPS36 (ProbeSet 11739960_a_at) / RFU SYPL1 (11715823_x_at) / Fold change /veh SYPL1 (11715823_x_at) / RFU IGFBP7 (11715501_s_at) / Fold change /veh IGFBP7 (11715501_s_at) / RFU REEP3 (11722064_at) / Fold change /veh REEP3 (11722064_at) / RFU IGLL1 (11728026_x_at) / Fold change /veh IGLL1 (11728026_x_at): dose or concentration left out as unconfirmed
Conditions: ProbeSet 11743882_a_at; LIST D

SMILES: Nc1ncn([C@@H]2O[C@H](CO)[C@@H](O)[C@H]2O)c(=O)n1 [azacitidine]
- Fold change vs veh, STRN3: 0.74
